For the assay, the target named is LuxG (Photobacterium leiognathi, UniProt P29237). Put plainly: stopped-flow NADH fluorescence, amplitude titration. The class given is binding.
LuxG, sequence (P29237 whole entry): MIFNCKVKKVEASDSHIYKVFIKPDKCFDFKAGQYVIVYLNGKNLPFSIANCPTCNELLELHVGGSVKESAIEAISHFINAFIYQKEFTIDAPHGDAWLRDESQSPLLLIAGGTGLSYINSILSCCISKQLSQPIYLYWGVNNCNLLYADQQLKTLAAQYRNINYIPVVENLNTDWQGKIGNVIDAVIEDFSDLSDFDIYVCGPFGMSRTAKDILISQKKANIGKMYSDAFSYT

For the compound `NC(=O)C1=CN([C@@H]2O[C@H](COP(=O)(O)OP(=O)(O)OC[C@H]3O[C@@H](n4cnc5c(N)ncnc54)[C@H](O)[C@@H]3O)[C@@H](O)[C@H]2O)C=CC1` [NADH], binding was put at a Kd of 25 ± 4 µM.

These data come from PMC2980852 (Biochemistry, 2010).
